Series [1] concerns HSC. Briefly: Toxicity assays in HSC. In kind it is cell-based, human. As to conditions: data not shown.
The test system of series [2] is human primary hepatic stellate cells (hHSC). Briefly: TGFβ1-induced expression of α-SMA protein in human HSC (ELISA). As to conditions: Homo sapiens, 1 h preincubation, TGFβ1 1 ng/ml, 48 hours, read-out: IC50 (level of α-SMA in TGFβ-induced HSCs). In kind it is cell-based. The method, then:
Serum-deprived HSC were preincubated for 1 hour with NTZ (A) or TZ (B) before the activation with the profibrogenic cytokine TGFβ1 (1 ng/ml). After 48 hours of incubation, the expression of α-SMA was measured by ELISA. The obtained values were transformed into percentage inhibition over TGFβ1 control. Data are presented as mean (triplicates)±standard deviation (SD). Statistical analyses were performed by one-way ANOVA followed by Bonferroni post-hoc tests, using Sigma Plot 11.0 software. [*: p<0.05; **: p<0.01; ***: p<0.001 (comparison versus TGFβ1 1 ng/mL group)]. The curve fitting and the calculation of half maximal inhibitory concentration (IC50) were performed with XLFit software 5.3.1.3. The human primary hepatic stellate cells (hHSC) (Innoprot) were cultured in STeCM medium (ScienCell cat #5301) that was supplemented with 2% fetal bovine serum (FBS, ScienCell cat #0010), 1% penicillin/streptomycin (ScienCell cat #0503) and stellate cell growth supplement (SteCGS; ScienCell cat #5352). Cell culture flasks were coated with Poly-L Lysine (Sigma cat # P4707) for a better adherence. The human primary hepatic stellate cells (hHSC) (Innoprot) were cultured under standard conditions, as described above. The cells were subsequently plated at a density of 7×10^4 cells/well into 24-well plates for gene expression studies, and at a density of 2×10^4 cells/well into 96-well plates for the measure of α-SMA by ELISA. The next day, cell culture medium was removed, and cells were washed with PBS (Invitrogen cat #14190). hHSC were deprived for 24 hours in serum-free and SteCGS-free medium. For the treatments with NTZ or TZ, the serum-deprived hHSC were preincubated for 1 hour with the compounds followed by the addition of the profibrogenic stimuli TGFβ1 (PeproTech cat #100-21, 1 ng/mL) in serum-free and SteCGS-free medium for an additional 24 or 48 hour period (the timepoint is indicated in the figure legends). […] The level of α-SMA was measured using a Sandwich ELISA. […]
On the technique in general: In an ELISA, binding on a coated surface is turned into a signal by an enzyme label.

pIC50: −log10 of the molar value.

Broadly, the pIC50 is the negative decadic logarithm of the IC50, by convention in mol/L.

Consider `CC(=O)Oc1ccccc1C(=O)Nc1ncc([N+](=O)[O-])s1` [NTZ, [2-[(5-nitro-1,3-thiazol-2-yl)carbamoyl]phenyl]ethanoate, reference compound], for which the “toxicity or apoptosis of HSC” value in series [1] is “not due to toxicity or apoptosis”. In addition, the pIC50 in series [2] was 5.52 to 7.00.
